Patent US20200129524A1, “PERSONALIZED CONTRACEPTIVE FORMULATIONS” (Agile Therapeutics, Inc., priority 2017, published 2020)

Tests used:
[1] = system: healthy women; experiment: Clinical trial of contraceptive effectiveness of a transdermal patch (% of women pregnant by weight or BMI category); assay type: in vivo; details: 120 μg/d LNG + 30 μg/d EE patch, 13 cycles (one year)
Text: To obtain the required data that would allow us to determine the personalized dosage of progestin required for each woman, we performed a clinical trial which is shown below as Example 1. When administered 120 micrograms per day of levonorgestrel (LNG), the number of women in each body weight category and the percent of the women in each category that became pregnant over a period of one year is shown in Table 1 and graphically depicted in FIG. 1.
In a clinical trial, 2032 healthy women, aged 18 and over, were enrolled in 102 investigative sites in the US. It was an open label, 13 cycle trial (one year) to study the effectiveness of a transdermal patch delivering 120 μg per day of levonorgestrel (LNG) and 30 μg per day of ethinyl estradiol (EE). The treatment regimen for each cycle was three consecutive 7-day patches (21 days) followed by one patch-free week.
The women enrolled in the different weight categories (in pounds) are shown in the second column of Table 1.
The percentage of women that became pregnant over the 13 cycle period is shown in column 3 of Table 1. A graph of the percentage of women that became pregnant in each weight category is also graphically illustrated in FIG. 1.
The same analysis was performed using the BMI of the women enrolled in the trial.

[2] = Free LNG circulating in plasma versus EE delivered (WO2016187269)
Method: However, ethinyl estradiol binds to SHBG and in the process it releases some of the bound LNG. Therefore if more or less than about 30 μg of EE are delivered from the contraceptive formulation, the required levels shown in FIGS. 3, 3a and 3b will have to be modified accordingly. […] Therefore the levels of required LNG can be calculated for any level of accompanied EE.

[3] = system: healthy women; experiment: Statistical (quadratic regression) analysis of LNG required dose with confidence limits; assay type: in vivo; parameters: dose required: unit: μg; details: for Daily LNG Required Dose, 1.5% Pregnancy Rate Dose / Daily LNG Required Dose, 3% Pregnancy Rate Dose: EE 30 μg; for level of LNG equivalent: women with body weight of over 200 pounds, 30 μg EE per day
Text: Z represents the applicable coefficient to obtain a desired level of confidence (e.g. a coefficient of two would imply a 95.5% confidence level and a coefficient of three would imply a 99.7% confidence level). The other variables are the same as indicated above. For example, the dose required for a 150 pound person assuming a 95% confidence level would be determined as follows: […]
Table 7 and FIG. 6 summarize the maximum and the minimum dose of levonorgestrel levels required at the 95.5% level of confidence (two standard deviation units, i.e., two σ) for varying woman BMI categories.
Table 7a and FIG. 6a summarize the maximum and the minimum dose of levonorgestrel levels required at the 68% level of confidence (one standard deviation unit, i.e., one σ) for varying woman BMI categories.
A review of the data points associated with Tables 4 and 5 reveal again a relationship which could be linear or quadratic. Again, since the data has substantial variability in the individual points a statistical analysis of the data was performed. The applicable linear and quadratic equations had correlation coefficients R2 of 0.73 for both 1.5 and 3% pregnancy rates. The standard error for the 1.5% pregnancy rate (linear VS quadratic) as well as the 3% pregnancy rate (linear versus quadratic) was within 10 micrograms of each other. […] We chose to draw FIGS. 4a and 4b based on the quadratic equations, so as to have an easier comparison to the corresponding body weight lines in FIGS. 3a and 3b.
As indicated above the implied equation is shown below, where the symbols Y and X are the same as presented above. The correlation coefficient R2 is 0.73 and the standard error 94.3 micrograms.
The correlation coefficient, R2 is 0.73 and the standard error 46.8. The above equation can be modified to provide a 95.5% confidence level as follows
Table 7 and FIG. 6 summarize the maximum and minimum dose of levonorgestrel levels required at the 95% confidence for varying woman BMI categories as determined from the modified equations described above.
Therefore another practical approach is to treat all women with body weight of over 200 pounds with the same formulations. For example for women co-administered 30 μg EE per day, the level of LNG equivalent would be 350 μg per day (for the 1.5% pregnancy level), and 200 μg per day (for the 3% pregnancy level). An intermediate level of 260 μg per day can also be prepared.

[4] = cited from earlier work
[5] = for every 10 μg per day of EE delivered
[6] = BMI >17.5 < 22.5, 68% confidence level, 30 μg EE
[7] = BMI >17.5 < 22.5, 95.5% confidence level, 30 μg EE
[8] = BMI >22.5 < 27.5, 68% confidence level, 30 μg EE
[9] = BMI >22.5 < 27.5, 95.5% confidence level, 30 μg EE
[10] = BMI >27.5 < 32.5, 68% confidence level, 30 μg EE
[11] = BMI >27.5 < 32.5, 95.5% confidence level, 30 μg EE
[12] = BMI >32.5 < 37.5, 68% confidence level, 30 μg EE
[13] = BMI >32.5 < 37.5, 95.5% confidence level, 30 μg EE
[14] = BMI >37.5 < 42.5, 68% confidence level, 30 μg EE
[15] = BMI >37.5 < 42.5, 95.5% confidence level, 30 μg EE
[16] = BMI >42.5 < 47.5, 68% confidence level, 30 μg EE
[17] = BMI >42.5 < 47.5, 95.5% confidence level, 30 μg EE
[18] = BMI >47.5 < 52.5, 68% confidence level, 30 μg EE
[19] = BMI >47.5 < 52.5, 95.5% confidence level, 30 μg EE
[20] = weight 90 to ≤120, 68% confidence level
[21] = weight 90 to ≤120, 95.5% confidence level
[22] = weight 120 to ≤150, 68% confidence level
[23] = weight 120 to ≤150, 95.5% confidence level
[24] = weight 150 to ≤180, 68% confidence level
[25] = weight 150 to ≤180, 95.5% confidence level
[26] = weight 180 to ≤210, 68% confidence level
[27] = weight 180 to ≤210, 95.5% confidence level
[28] = weight 210 to ≤240, 68% confidence level
[29] = weight 210 to ≤240, 95.5% confidence level
[30] = weight 240 to ≤270, 68% confidence level
[31] = weight 240 to ≤270, 95.5% confidence level
[32] = weight 270+, 68% confidence level
[33] = weight 270+, 95.5% confidence level

## C#C[C@]1(O)CC[C@H]2[C@@H]3CCC4=CC(=O)CC[C@@H]4[C@H]3CC[C@@]21CC [LNG, levonorgestrel]
[1]; weight category >90 but ≤ 120 pounds
  % of pregnancies: 1.5%
[1]; weight category >120 but ≤ 150 pounds
  % of pregnancies: 2.66%
[2]; [5]
  increase of free LNG as share of the approximate steady state level: 20%
[2]; for every one μg per day reduction or increase of EE below or above 30 μg per day
  change of free LNG in the plasma: 30 picograms per ml
[3]; 25 BMI woman, 95% confidence level, 3% pregnancy rate
  dose required: 26
[3]; 27.5 BMI woman, 95.5% confidence, pregnancy rate of 1.5%
  LNG daily dosage, high boundary value: 430 microgram
[3]; 150 pound person, 95.5% confidence, 3 pregnancies per 100 woman years, 30 μg EE
  daily dose, low boundary value: 62.4 µg
[3]; 150 pound person, 95.5% confidence, pregnancy rate of 1.5%, 30 μg EE
  daily dose, high boundary value: 302 µg
[3]; [6]
  LNG Daily Required Dose, 1.5% Pregnancy Rate: 283 µg
  LNG Daily Required Dose, 3% Pregnancy Rate: 47 µg
[3]; [7]
  LNG Daily Required Dose, 1.5% Pregnancy Rate: 378 µg
  LNG Daily Required Dose, 3% Pregnancy Rate: 0.1 µg
[3]; [8]
  LNG Daily Required Dose, 1.5% Pregnancy Rate: 335 µg
  LNG Daily Required Dose, 3% Pregnancy Rate: 72 µg
[3]; [9]
  LNG Daily Required Dose, 1.5% Pregnancy Rate: 430 µg
  LNG Daily Required Dose, 3% Pregnancy Rate: 26 µg
[3]; [10]
  LNG Daily Required Dose, 1.5% Pregnancy Rate: 390 µg
  LNG Daily Required Dose, 3% Pregnancy Rate: 99 µg
[3]; [11]
  LNG Daily Required Dose, 1.5% Pregnancy Rate: 484 µg
  LNG Daily Required Dose, 3% Pregnancy Rate: 52 µg
[3]; [12]
  LNG Daily Required Dose, 1.5% Pregnancy Rate: 447 µg
  LNG Daily Required Dose, 3% Pregnancy Rate: 127 µg
[3]; [13]
  LNG Daily Required Dose, 1.5% Pregnancy Rate: 541 µg
  LNG Daily Required Dose, 3% Pregnancy Rate: 80 µg
[3]; [14]
  LNG Daily Required Dose, 1.5% Pregnancy Rate: 507 µg
  LNG Daily Required Dose, 3% Pregnancy Rate: 157 µg
[3]; [15]
  LNG Daily Required Dose, 1.5% Pregnancy Rate: 601 µg
  LNG Daily Required Dose, 3% Pregnancy Rate: 110 µg
[3]; [16]
  LNG Daily Required Dose, 1.5% Pregnancy Rate: 569 µg
  LNG Daily Required Dose, 3% Pregnancy Rate: 187 µg
[3]; [17]
  LNG Daily Required Dose, 1.5% Pregnancy Rate: 663 µg
  LNG Daily Required Dose, 3% Pregnancy Rate: 140 µg
[3]; [18]
  LNG Daily Required Dose, 1.5% Pregnancy Rate: 633 µg
  LNG Daily Required Dose, 3% Pregnancy Rate: 219 µg
[3]; [19]
  LNG Daily Required Dose, 1.5% Pregnancy Rate: 728 µg
  LNG Daily Required Dose, 3% Pregnancy Rate: 172 µg
[3]; [20]
  Daily LNG Required Dose, 1.5% Pregnancy Rate Dose: 171 µg/day
  Daily LNG Required Dose, 3% Pregnancy Rate Dose: 41 µg/day
[3]; [21]
  Daily LNG Required Dose, 1.5% Pregnancy Rate Dose: 215 µg/day
  Daily LNG Required Dose, 3% Pregnancy Rate Dose: 19 µg/day
[3]; [22]
  Daily LNG Required Dose, 1.5% Pregnancy Rate Dose: 258 µg/day
  Daily LNG Required Dose, 3% Pregnancy Rate Dose: 84 µg/day
[3]; [23]
  Daily LNG Required Dose, 1.5% Pregnancy Rate Dose: 302 µg/day
  Daily LNG Required Dose, 3% Pregnancy Rate Dose: 62 µg/day
[3]; [24]
  Daily LNG Required Dose, 1.5% Pregnancy Rate Dose: 331 µg/day
  Daily LNG Required Dose, 3% Pregnancy Rate Dose: 120 µg/day
[3]; [25]
  Daily LNG Required Dose, 1.5% Pregnancy Rate Dose: 375 µg/day
  Daily LNG Required Dose, 3% Pregnancy Rate Dose: 98 µg/day
[3]; [26]
  Daily LNG Required Dose, 1.5% Pregnancy Rate Dose: 389 µg/day
  Daily LNG Required Dose, 3% Pregnancy Rate Dose: 148 µg/day
[3]; [27]
  Daily LNG Required Dose, 1.5% Pregnancy Rate Dose: 433 µg/day
  Daily LNG Required Dose, 3% Pregnancy Rate Dose: 126 µg/day
[3]; [28]
  Daily LNG Required Dose, 1.5% Pregnancy Rate Dose: 432 µg/day
  Daily LNG Required Dose, 3% Pregnancy Rate Dose: 169 µg/day
[3]; [29]
  Daily LNG Required Dose, 1.5% Pregnancy Rate Dose: 476 µg/day
  Daily LNG Required Dose, 3% Pregnancy Rate Dose: 147 µg/day
[3]; [30]
  Daily LNG Required Dose, 1.5% Pregnancy Rate Dose: 459 µg/day
  Daily LNG Required Dose, 3% Pregnancy Rate Dose: 183 µg/day
[3]; [31]
  Daily LNG Required Dose, 1.5% Pregnancy Rate Dose: 503 µg/day
  Daily LNG Required Dose, 3% Pregnancy Rate Dose: 161 µg/day
[3]; [32]
  Daily LNG Required Dose, 1.5% Pregnancy Rate Dose: 472 µg/day
  Daily LNG Required Dose, 3% Pregnancy Rate Dose: 189 µg/day
[3]; [33]
  Daily LNG Required Dose, 1.5% Pregnancy Rate Dose: 516 µg/day
  Daily LNG Required Dose, 3% Pregnancy Rate Dose: 167 µg/day
[3]; 1.5% pregnancy level
  level of LNG equivalent: 350 μg per day
[3]; 3% pregnancy level
  level of LNG equivalent: 200 μg per day
[4]; [5]
  increase of free LNG circulating in the plasma: 300 picograms per ml
[4]; plasma
  approximate steady state level of LNG: ~1500 picograms LNG per ml
